Source: ChEMBL document CHEMBL3638691, “Quinoline derivatives and MELK inhibitors containing the same” (2015)
Several values for one entry are separate records, joined by “and”; a condition that tells them apart may be missing. Equal entries are not always repeated.

target: Maternal embryonic leucine zipper kinase (Homo sapiens, UniProt Q14680); assay: Kinase Assay: MELK activity was determined in the presence or absence of compounds using fluorescein isothiocyanate-labeled (FITC-labeled) histone H3 peptide as a substrate. The extent of FITC-labeled histone H3 peptide phosphorylation was measured by immobilized metal ion affinity-based fluorescence polarization (IMAP) technology (Sportsman J R, et al., Assay Drug Dev. Technol. 2: 205-14, 2004) using IMAP FP Progressive Binding System (Molecular Devices Corporation). Test compounds were dissolved in DMSO at 12.5 mM and then serially diluted as the DMSO concentration in the assays to be 1%. The serially diluted compounds, 0.8 ng/micro-L PBK (Carna Biosciences) and 100 nM FITC-labeled histone H3 peptide were reacted in a reaction buffer (20 mM HEPES, 0.01% Tween-20, 0.3 mM MgCl2, 2 mM dithiothreitol, 50 micro-M ATP, pH 7.4) at room temperature for 1 hour. The reaction was stopped by the addition of three fold assay volume of progressive binding solution. Following 0.5 hour incubation at room temperature.
Sequence (Q14680 whole entry): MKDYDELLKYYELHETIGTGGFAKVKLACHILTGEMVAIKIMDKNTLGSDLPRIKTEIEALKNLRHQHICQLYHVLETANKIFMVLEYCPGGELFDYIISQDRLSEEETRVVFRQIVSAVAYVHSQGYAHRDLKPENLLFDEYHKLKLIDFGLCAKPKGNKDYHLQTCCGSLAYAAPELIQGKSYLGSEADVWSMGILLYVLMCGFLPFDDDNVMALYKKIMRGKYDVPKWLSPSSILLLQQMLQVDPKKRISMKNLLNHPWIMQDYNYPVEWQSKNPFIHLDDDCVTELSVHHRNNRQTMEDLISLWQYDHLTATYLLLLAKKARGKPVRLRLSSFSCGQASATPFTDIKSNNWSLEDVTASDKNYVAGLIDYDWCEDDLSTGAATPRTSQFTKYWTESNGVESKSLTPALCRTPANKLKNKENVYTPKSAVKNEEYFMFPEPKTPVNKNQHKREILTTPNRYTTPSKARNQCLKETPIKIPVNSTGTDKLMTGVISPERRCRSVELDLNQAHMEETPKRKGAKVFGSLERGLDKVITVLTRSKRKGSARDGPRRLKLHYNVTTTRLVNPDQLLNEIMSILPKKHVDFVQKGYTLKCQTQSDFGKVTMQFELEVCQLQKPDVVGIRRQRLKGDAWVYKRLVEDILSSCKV

SMILES | IC50
CC(=O)c1cnc2ccc(-c3cc(Cl)c(O)c(Cl)c3)cc2c1N[C@H]1CC[C@H](CN(C)C)CC1 | 3.1 nM
CC(=O)c1cnc2ccc(-c3cnc(C#N)nc3)cc2c1Nc1ccc(CN(C)C)cc1 | 2.2 nM
COc1cc(-c2ccc3ncc(C(=O)C4CC4)c(Nc4ccc(C5CCCN5C)cn4)c3c2)cc(Cl)c1O (stereo not drawn) | 36 nM
COc1cc(-c2ccc3ncc(C#N)c(N[C@H]4CC[C@H](N(C)C)CC4)c3c2)cc(Cl)c1O | 1.8 nM
Cc1cc(O)c(Cl)cc1-c1ccc2ncc(C(=O)C3CC3)c(N3CCC(CN(C)C)CC3)c2c1 | 60 nM
CN(C)CC1CCN(c2c(C(=O)C3CC3)cnc3ccc(-c4ccc(OC(F)F)cc4)cc23)CC1 | 630 nM
O=C(c1cnc2ccc(-c3cc(Cl)c(O)c(Cl)c3)cc2c1Nc1ccc(CN2CCOCC2)cc1)C1CC1 | 20 nM
CN(C)Cc1ccc(Nc2c([S+](C)[O-])cnc3ccc(-c4cc(Cl)c(O)c(Cl)c4)cc23)cc1 (stereo not drawn) | 8.2 nM
CN(C)CC1CCN(c2c(C(=O)C3CC3)cnc3ccc(-c4ccc5c(c4)CC(=O)N5)cc23)CC1 | 660 nM
N#Cc1ncc(-c2ccc3ncc(C(=O)C4CC4)c(Nc4ccc(CN)cc4)c3c2)cn1 | 1.3 nM
O=C(c1cnc2ccc(-c3cc(Cl)c(O)c(Cl)c3)cc2c1N[C@H]1CC[C@H](CN2CCCC2)CC1)C1CC1 | 1.4 nM
CN1CCN(C[C@H]2CC[C@H](Nc3c(C(=O)C4CC4)cnc4ccc(-c5cc(Cl)c(O)c(Cl)c5)cc34)CC2)CC1 | 4.2 nM and 2.8 nM
CN(C)C1CCN(C[C@H]2CC[C@H](Nc3c(C(=O)C4CC4)cnc4ccc(-c5cc(Cl)c(O)c(Cl)c5)cc34)CC2)C1 (stereo partly drawn) | 3 nM
CN(C)C1CCN(Cc2ccc(Nc3c(C(=O)C4CC4)cnc4ccc(-c5cc(Cl)c(O)c(Cl)c5)cc34)cc2)C1 (stereo not drawn) | 7.2 nM and 5.6 nM
O=C(c1cnc2ccc(-c3cc(Cl)c(O)c(Cl)c3)cc2c1N1CCC(CCN2CCCC2)CC1)C1CC1 | 2.3 nM
CC(=O)c1cnc2ccc(-c3cc(Cl)c(O)c(Cl)c3)cc2c1N[C@H]1CC[C@H](CN2CCN(C)CC2)CC1 | 5.5 nM
CC(=O)c1cnc2ccc(-c3cc(Cl)c(O)c(Cl)c3)cc2c1N[C@H]1CCC[C@@H](CN2CCN(C)CC2)C1 | 2.7 nM
CCN(CC)CCO[C@H]1CC[C@H](Nc2c(C(C)=O)cnc3ccc(-c4cc(Cl)c(O)c(Cl)c4)cc23)CC1 | 2.9 nM
CC(=O)c1cnc2cc(C)c(-c3cc(Cl)c(O)c(Cl)c3)cc2c1N[C@H]1CC[C@H](CN2CCC(N)C2)CC1 (stereo partly drawn) | 55 nM
CS(=O)(=O)c1cnc2ccc(-c3cc(Cl)c(O)c(Cl)c3)cc2c1Nc1cccc(CCN2CCCC2)c1 | 2 nM
CC(=O)c1cnc2ccc(-c3cc(Cl)c(O)c(Cl)c3)cc2c1Nc1ccc(S(=O)(=O)N2CCN(C)CC2)cc1 | 36 nM
CS(=O)(=O)c1cnc2ccc(-c3cc(Cl)c(O)c(Cl)c3)cc2c1N[C@H]1CC[C@H](CN2CCCC2)CC1 | 2.7 nM
CN(C)C1CCN(c2ccc(Nc3c(S(C)(=O)=O)cnc4ccc(-c5cc(Cl)c(O)c(Cl)c5)cc34)cn2)C1 (stereo not drawn) | 2.4 nM
CN(C)C[C@H]1CC[C@H](Nc2c(C(=O)C3CCCC3)cnc3ccc(-c4cc(Cl)c(O)c(Cl)c4)cc23)CC1 | 3 nM
CN(C)C[C@H]1CC[C@H](Nc2c(C(=O)C(C)(C)C)cnc3ccc(-c4cc(Cl)c(O)c(Cl)c4)cc23)CC1 | 22 nM
CC(=O)c1cnc2ccc(-c3cc(Cl)c(O)c(Cl)c3)cc2c1N[C@H]1CC[C@H](NC(=O)[C@@H](N)C(C)(C)C)CC1 | 4.2 nM
O=C(c1cnc2ccc(-c3cc(Cl)c(O)c(Cl)c3)cc2c1Nc1cccc(CCN2CCCC2)c1)C1CCCC1 | 9.6 nM
CC(N)C(=O)N[C@H]1CC[C@H](Nc2c(C(=O)C(C)(C)C)cnc3ccc(-c4cc(Cl)c(O)c(Cl)c4)cc23)CC1 (stereo partly drawn) | 15 nM
